System: Vγ9Vδ2 T cells
Experiment: Activation of Vγ9Vδ2 T cells (TNF-α, flow cytometry) by PC3 prostate carcinoma cells co-cultured with expanded PBMC
Assay type: cell-based, human
Protocol: PC3 cells were transduced with either LV-vector, LV-BTN3A3 (R381H), or LV-BTN3A3 (WT). Three days after transduction, cells were treated with or without 1 μM zoledronic acid. After 24 hours, the transduced PC3 cells were co-cultured with 5×10^5 PBMC cells and IL-2 in a round bottom 96 well plate for 4 hours. The PBMC cells were pre-stimulated with zoledronic acid and IL-2 for 11 days to expand Vγ9Vδ2 T cells. After staining for Vγ9Vδ2 and TNF-α using fluorophore-conjugated anti TCR-Vδ2 and anti-TNF-α antibody, cells were analyzed via flow cytometry. Live cells were gated, and Vδ2+ and TNF-α+ cells were selected on a dot blot. The activated cytotoxic Vγ9Vδ2 T cells appeared in the upper right quadrant of flow cytograms. Without zoledronic acid, the percent of TNF-α expressing Vγ9Vδ2 T cells was 0.37% with LV-vector, 26.7% with BTN3A3 (R381H), and 0.44% with LV-BTN3A3 (WT). With zoledronic acid, the percent of TNF-α expressing Vγ9Vδ2 T cells was 8.91% with LV-vector, 35.2% with BTN3A3 (R381H), and 8.76% with LV-BTN3A3 (WT).
PC3 cells were transduced with LV-vector, LV-BTN3A3 (R381H), or LV-shFDPS-BTN3A3 (R381H). Three days after transduction, cells were treated with or without 1 μM zoledronic acid. After 24 hours, the transduced PC3 cells were co-cultured with 5×10^5 PBMC cells and IL-2 in a round bottom 96 well plate for 4 hours. The PBMC cells were pre-stimulated with zoledronic acid and IL-2 for 11 days to expand Vγ9Vδ2 T cells. After staining for Vγ9Vδ2 and TNF-α using fluorophore-conjugated anti TCR-Vδ2 and anti-TNF-α antibody, cells were analyzed via flow cytometry. Live cells were gated, and Vδ2+ and TNF-α+ cells were selected on a dot blot. The activated cytotoxic Vγ9Vδ2 T cells appeared in the upper right quadrant of flow cytograms. Without zoledronic acid, the percent of TNF-α expressing Vγ9Vδ2 T cells was 0.1% with LV-vector, 21.1% with BTN3A3 (R381H), and 18.2% with the combination of LV-shFDPS-BTN3A3 (R381H). With zoledronic acid, the percent of TNF-α expressing Vγ9Vδ2 T cells was 13.6% with LV-vector, 25.5% with BTN3A3 (R381H), and 39.6% with the combination of LV-shFDPS-BTN3A3 (R381H).
PC3 cells were transduced with LV-shFDPS or LV-shFDPS-IL-2. Three days after transduction, cells were treated with or without 1 μM zoledronic acid. After 24 hours, the transduced PC3 cells were co-cultured with 5×10^5 PBMC cells and with or without IL-2 in a round bottom 96 well plate for 4 hours. The PBMC cells were pre-stimulated with zoledronic acid and IL-2 for 11 days to expand Vγ9Vδ2 T cells. After staining for Vγ9Vδ2 and TNF-α using fluorophore-conjugated anti TCR-Vδ2 and anti-TNF-α antibody, cells were analyzed via flow cytometry. Live cells were gated, and Vδ2+ and TNF-α+ cells were selected on a dot blot. The activated cytotoxic Vγ9Vδ2 T cells appeared in the upper right quadrant of flow cytograms. With only zoledronic acid, the percent of TNF-α expressing Vγ9Vδ2 T cells was 24.6% with LV-shFDPS and 46.8% with LV-shFDPS-IL-2. With zoledronic acid and IL-2, the percent of TNF-α expressing Vγ9Vδ2 T cells was 48.6% with LV-shFDPS and 41% with LV-shFDPS-IL-2.
PC3 cells were transduced with LV-vector, LV-shFDPS, or LV-shFDPS-IL-15. Three days after transduction, cells were treated with or without 1 μM zoledronic acid. After 24 hours, the transduced PC3 cells were co-cultured with 5×10^5 PBMC cells and with or without IL-2 in a round bottom 96 well plate for 4 hours. The PBMC cells were pre-stimulated with zoledronic acid and IL-2 for 11 days to expand Vγ9Vδ2 T cells. After staining for Vγ9Vδ2 and TNF-α using fluorophore-conjugated anti TCR-Vδ2 and anti-TNF-α antibody, cells were analyzed via flow cytometry. Live cells were gated, and Vδ2+ and TNF-α+ cells were selected on a dot blot. The activated cytotoxic Vγ9Vδ2 T cells appeared in the upper right quadrant of flow cytograms. With only zoledronic acid, the percent of TNF-α expressing Vγ9Vδ2 T cells was 10% with LV-vector, 13% with LV-shFDPS, and 14.6% with LV-shFDPS-IL-15. […]

[1] = Example 25, FIG. 29, LV-FDPS shRNA #4 transduced PC3 cells, drug 1 μM, 24 hours
[2] = Example 25, FIG. 29, LV-control transduced PC3 cells, 1 μM, 24 hours, untreated 1.73%

Row | SMILES | percent of TNF-α expressing Vγ9Vδ2 T cells [1] | percent of TNF-α expressing Vγ9Vδ2 T cells [2] | percent of TNF-α expressing Vγ9Vδ2 T cells (Example 25, FIG. 29, LV-FDPS shRNA #4 transduced PC3 cells, drug 5 μM, 24 hours) | percent of TNF-α expressing Vγ9Vδ2 T cells (Example 25, FIG. 29, LV-control transduced PC3 cells, 5 μM, 24 hours, untreated 1.73%) | percent of TNF-α expressing Vγ9Vδ2 T cells (Example 3, LV-vector (control) transduced PC3 cells, 1 μM zoledronic acid) | percent of TNF-α expressing Vγ9Vδ2 T cells (Example 5, LV-vector (control) transduced PC3 cells, 1 μM zoledronic acid) | percent of TNF-α expressing Vγ9Vδ2 T cells (Example 8, LV-vector (control) transduced PC3 cells, only zoledronic acid (1 μM)) | percent of TNF-α expressing Vγ9Vδ2 T cells (Example 8, LV-vector (control) transduced PC3 cells, zoledronic acid (1 μM) and IL-2) | percent of TNF-α expressing Vγ9Vδ2 T cells (Example 19, LV-control transduced PC3 cells, 1 μM zoledronic acid) | percent of TNF-α expressing Vγ9Vδ2 T cells (Example 23, LV-control transduced PC3 cells, 1 μM zoledronic acid)
1 | COC(=O)[C@H](CCSC)NC(=O)c1ccc(NC[C@@H](N)CS)cc1-c1ccccc1 [FT1277] | 2.44% | 1.64% |  |  |  |  |  |  |  | 
2 | C=C(CC[C@]12O[C@H](C(=O)O)[C@@](O)(C(=O)O)[C@](C(=O)O)(O1)[C@H](OC(=O)/C=C/[C@@H](C)C[C@@H](C)CC)[C@H]2O)[C@@H](OC(C)=O)[C@H](C)Cc1ccccc1 [zaragozic acid] |  |  | 2.66% | 1.57% |  |  |  |  |  | 
3 | O=P(O)(O)C(O)(Cn1ccnc1)P(=O)(O)O [zoledronic acid] | 50.3% | 2.87% |  |  | 8.91% | 13.6% | 10% | 14.5% | 5.71% | 8.66%

Source: patent US12559769B2, “Methods and compositions for the activation of tumor cytotoxicity via human gamma-delta t-cells” (priority 2017, dated 2026)
